Measurements published in ChEMBL document CHEMBL5058646 (2022).

Legend:
[1] = biological target: Dual specificity mitogen-activated protein kinase kinase 7 (Homo sapiens) (UniProt O14733); assay: MAP2K7 SGC Tm panel (DSF); details: Compound concentration 20.0 uM
[2] = biological target: Serine/threonine-protein kinase 17A (Homo sapiens) (UniProt Q9UEE5); assay: STK17A SGC Tm panel (DSF); details: Compound concentration 20.0 uM
[3] = biological target: T1, Zinc finger and BTB domain-containing protein 2 (Homo sapiens) (UniProt Q8N680); details: OCI-Ly1, Compound concentration 1.0 uM
T1 sequence (whole entry): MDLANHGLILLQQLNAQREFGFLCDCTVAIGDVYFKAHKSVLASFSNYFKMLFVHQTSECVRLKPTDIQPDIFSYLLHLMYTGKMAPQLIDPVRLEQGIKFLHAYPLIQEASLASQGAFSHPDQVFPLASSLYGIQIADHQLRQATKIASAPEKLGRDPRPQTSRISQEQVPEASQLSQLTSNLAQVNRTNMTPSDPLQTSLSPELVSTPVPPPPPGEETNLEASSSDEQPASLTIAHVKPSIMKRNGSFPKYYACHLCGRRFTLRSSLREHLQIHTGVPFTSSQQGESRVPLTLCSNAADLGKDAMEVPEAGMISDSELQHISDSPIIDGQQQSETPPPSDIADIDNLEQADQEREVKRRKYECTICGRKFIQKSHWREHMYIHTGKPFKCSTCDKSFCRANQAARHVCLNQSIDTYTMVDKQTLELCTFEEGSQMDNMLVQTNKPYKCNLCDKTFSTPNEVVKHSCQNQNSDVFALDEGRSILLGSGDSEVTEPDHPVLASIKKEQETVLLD

[4] = biological target: Dual specificity mitogen-activated protein kinase kinase 6 (Homo sapiens) (UniProt P52564); assay: MAP2K6 SGC Tm panel (DSF); details: Compound concentration 20.0 uM
[5] = biological target: T2, Zinc finger protein 131 (Homo sapiens) (UniProt P52739); details: SUD4, Compound concentration 1.0 uM
T2 sequence (whole entry): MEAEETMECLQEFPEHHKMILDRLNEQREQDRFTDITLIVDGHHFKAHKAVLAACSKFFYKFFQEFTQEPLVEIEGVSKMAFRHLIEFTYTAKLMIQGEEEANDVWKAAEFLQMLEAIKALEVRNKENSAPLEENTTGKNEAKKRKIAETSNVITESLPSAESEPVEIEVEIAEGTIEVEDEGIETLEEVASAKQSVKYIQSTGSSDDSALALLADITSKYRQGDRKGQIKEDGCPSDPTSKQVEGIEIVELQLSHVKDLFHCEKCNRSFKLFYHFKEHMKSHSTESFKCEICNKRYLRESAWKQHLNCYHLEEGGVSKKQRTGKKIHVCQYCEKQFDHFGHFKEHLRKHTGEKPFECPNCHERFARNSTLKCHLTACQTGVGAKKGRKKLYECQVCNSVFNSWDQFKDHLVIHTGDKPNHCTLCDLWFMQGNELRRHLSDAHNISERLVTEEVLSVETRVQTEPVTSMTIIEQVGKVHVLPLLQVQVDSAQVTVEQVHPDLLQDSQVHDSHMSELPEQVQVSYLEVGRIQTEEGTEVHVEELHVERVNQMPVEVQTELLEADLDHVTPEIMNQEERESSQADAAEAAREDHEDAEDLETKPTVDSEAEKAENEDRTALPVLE

[6] = biological target: Cytoplasmic tyrosine-protein kinase BMX (Homo sapiens) (UniProt P51813); assay: BMX SGC Tm panel (DSF); details: Compound concentration 20.0 uM
[7] = biological target: Fibroblast growth factor receptor 1 (Homo sapiens) (UniProt P11362); assay: FGFR1 SGC Tm panel (DSF); details: Compound concentration 20.0 uM
[8] = biological target: T3, Zinc finger and BTB domain-containing protein 44 (Homo sapiens) (UniProt Q8NCP5); details: SUD4, Compound concentration 1.0 uM
T3 sequence (whole entry): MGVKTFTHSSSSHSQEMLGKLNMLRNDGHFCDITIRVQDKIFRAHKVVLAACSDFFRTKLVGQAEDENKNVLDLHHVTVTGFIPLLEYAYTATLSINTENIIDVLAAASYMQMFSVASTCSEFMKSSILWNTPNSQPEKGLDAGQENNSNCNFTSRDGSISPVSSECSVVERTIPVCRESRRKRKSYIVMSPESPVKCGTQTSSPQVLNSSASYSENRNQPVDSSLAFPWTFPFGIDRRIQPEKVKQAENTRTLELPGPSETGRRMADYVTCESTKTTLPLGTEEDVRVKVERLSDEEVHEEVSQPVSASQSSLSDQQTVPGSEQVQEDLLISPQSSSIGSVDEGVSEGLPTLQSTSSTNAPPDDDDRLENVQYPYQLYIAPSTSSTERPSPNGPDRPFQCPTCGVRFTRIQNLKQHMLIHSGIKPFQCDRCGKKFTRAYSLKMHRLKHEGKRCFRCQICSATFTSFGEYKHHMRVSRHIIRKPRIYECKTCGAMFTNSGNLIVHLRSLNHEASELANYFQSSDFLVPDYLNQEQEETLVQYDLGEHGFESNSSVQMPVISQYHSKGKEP

[9] = biological target: Fibroblast growth factor receptor 3 (Homo sapiens) (UniProt P22607); assay: FGFR3 SGC Tm panel (DSF); details: Compound concentration 20.0 uM
[10] = biological target: Alpha-2B adrenergic receptor (Homo sapiens) (UniProt P18089); details: Compound concentration 10.0 uM
[11] = biological target: Alpha-1D adrenergic receptor (Homo sapiens) (UniProt P25100); details: Compound concentration 10.0 uM
[12] = biological target: T1, Zinc finger and BTB domain-containing protein 2 (Homo sapiens); details: SUD4, Compound concentration 1.0 uM
[13] = biological target: Histamine H4 receptor (Homo sapiens) (UniProt Q9H3N8); details: Compound concentration 10.0 uM
[14] = biological target: Casein kinase I isoform delta (Homo sapiens) (UniProt P48730); assay: CSNK1D SGC Tm panel (DSF); details: Compound concentration 20.0 uM
[15] = biological target: Dual specificity protein kinase CLK3 (Homo sapiens) (UniProt P49761); assay: CLK3 SGC Tm panel (DSF); details: Compound concentration 20.0 uM
Sequence of Dual specificity protein kinase CLK3 (Homo sapiens) (P49761 whole entry, looked up): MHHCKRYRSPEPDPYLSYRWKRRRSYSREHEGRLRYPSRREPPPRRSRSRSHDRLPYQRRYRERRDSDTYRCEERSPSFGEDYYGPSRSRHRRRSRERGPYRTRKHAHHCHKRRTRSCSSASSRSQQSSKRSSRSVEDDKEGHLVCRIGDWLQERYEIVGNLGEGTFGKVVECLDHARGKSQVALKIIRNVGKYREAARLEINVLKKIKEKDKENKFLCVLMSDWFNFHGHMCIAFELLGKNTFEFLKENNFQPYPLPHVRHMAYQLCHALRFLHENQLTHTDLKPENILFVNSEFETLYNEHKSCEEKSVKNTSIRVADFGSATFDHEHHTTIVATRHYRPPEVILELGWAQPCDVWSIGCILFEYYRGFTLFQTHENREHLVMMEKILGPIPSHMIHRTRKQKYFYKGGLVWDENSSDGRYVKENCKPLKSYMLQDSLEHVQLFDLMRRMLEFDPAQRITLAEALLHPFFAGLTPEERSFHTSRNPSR

Sequence of Fibroblast growth factor receptor 1 (Homo sapiens) (P11362 22-822 limits assumed): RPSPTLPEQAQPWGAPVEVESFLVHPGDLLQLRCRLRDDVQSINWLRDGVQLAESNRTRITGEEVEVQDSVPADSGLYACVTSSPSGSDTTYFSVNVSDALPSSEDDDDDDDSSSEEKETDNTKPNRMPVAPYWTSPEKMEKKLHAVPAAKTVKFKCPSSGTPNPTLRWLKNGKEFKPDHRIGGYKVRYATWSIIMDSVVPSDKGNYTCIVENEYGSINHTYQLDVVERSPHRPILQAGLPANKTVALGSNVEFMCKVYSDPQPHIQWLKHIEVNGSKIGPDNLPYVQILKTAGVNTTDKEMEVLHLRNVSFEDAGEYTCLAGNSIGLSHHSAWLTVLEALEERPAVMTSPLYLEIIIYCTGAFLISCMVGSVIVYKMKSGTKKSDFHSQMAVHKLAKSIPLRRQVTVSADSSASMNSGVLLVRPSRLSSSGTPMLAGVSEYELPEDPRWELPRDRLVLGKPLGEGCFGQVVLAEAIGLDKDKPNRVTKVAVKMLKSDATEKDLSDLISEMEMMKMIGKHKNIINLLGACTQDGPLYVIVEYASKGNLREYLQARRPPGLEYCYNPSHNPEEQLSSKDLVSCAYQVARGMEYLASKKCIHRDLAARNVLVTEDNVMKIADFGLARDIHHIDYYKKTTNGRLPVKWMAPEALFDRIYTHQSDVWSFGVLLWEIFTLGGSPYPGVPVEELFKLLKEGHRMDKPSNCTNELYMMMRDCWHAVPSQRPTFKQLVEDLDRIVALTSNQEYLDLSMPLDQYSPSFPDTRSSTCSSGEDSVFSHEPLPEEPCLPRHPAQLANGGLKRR
Sequence of Dual specificity mitogen-activated protein kinase kinase 7 (Homo sapiens) (O14733 whole entry): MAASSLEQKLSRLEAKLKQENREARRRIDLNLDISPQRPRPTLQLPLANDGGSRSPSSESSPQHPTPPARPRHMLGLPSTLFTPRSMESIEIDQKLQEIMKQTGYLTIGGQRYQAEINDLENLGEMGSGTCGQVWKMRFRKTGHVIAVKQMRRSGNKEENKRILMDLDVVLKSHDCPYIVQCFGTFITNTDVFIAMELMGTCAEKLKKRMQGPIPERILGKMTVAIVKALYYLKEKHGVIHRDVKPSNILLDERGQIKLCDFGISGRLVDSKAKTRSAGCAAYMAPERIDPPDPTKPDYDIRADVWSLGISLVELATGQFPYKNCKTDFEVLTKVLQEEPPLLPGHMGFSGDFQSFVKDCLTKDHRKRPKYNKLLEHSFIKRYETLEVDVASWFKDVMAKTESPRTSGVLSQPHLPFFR
Sequence of Dual specificity mitogen-activated protein kinase kinase 6 (Homo sapiens) (P52564 whole entry): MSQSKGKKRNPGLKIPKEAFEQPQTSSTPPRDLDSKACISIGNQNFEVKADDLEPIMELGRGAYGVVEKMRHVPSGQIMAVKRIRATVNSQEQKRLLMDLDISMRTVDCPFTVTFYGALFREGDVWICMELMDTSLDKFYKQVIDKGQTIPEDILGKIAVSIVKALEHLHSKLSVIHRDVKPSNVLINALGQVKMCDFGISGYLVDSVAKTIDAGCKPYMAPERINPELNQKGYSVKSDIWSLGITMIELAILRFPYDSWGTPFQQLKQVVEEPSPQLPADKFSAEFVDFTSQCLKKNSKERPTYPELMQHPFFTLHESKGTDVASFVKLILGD
Sequence of Casein kinase I isoform delta (Homo sapiens) (P48730 whole entry, looked up, canonical isoform): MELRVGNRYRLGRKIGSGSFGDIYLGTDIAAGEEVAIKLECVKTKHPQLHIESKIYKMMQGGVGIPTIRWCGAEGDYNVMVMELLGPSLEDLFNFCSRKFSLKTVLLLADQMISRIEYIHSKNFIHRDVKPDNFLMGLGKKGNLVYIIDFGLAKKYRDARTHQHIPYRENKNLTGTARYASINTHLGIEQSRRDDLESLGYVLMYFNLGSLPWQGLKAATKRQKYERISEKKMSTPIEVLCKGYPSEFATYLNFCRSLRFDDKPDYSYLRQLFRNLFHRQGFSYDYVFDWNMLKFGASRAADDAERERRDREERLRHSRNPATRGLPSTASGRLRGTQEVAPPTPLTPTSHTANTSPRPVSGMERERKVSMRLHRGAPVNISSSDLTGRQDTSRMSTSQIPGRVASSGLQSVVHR
Sequence of Serine/threonine-protein kinase 17A (Homo sapiens) (Q9UEE5 whole entry, the tested form may be a part): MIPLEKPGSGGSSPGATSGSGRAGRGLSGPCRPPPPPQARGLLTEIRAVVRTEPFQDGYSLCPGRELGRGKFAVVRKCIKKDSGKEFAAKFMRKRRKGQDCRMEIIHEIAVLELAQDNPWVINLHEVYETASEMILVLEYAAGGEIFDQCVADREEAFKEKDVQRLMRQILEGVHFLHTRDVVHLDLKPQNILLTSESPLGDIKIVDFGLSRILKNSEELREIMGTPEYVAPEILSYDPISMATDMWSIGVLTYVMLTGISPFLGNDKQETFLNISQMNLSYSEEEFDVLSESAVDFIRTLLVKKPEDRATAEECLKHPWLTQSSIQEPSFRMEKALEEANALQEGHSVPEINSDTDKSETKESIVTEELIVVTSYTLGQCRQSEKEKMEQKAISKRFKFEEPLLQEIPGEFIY
Sequence of Fibroblast growth factor receptor 3 (Homo sapiens) (P22607 23-806 limits assumed): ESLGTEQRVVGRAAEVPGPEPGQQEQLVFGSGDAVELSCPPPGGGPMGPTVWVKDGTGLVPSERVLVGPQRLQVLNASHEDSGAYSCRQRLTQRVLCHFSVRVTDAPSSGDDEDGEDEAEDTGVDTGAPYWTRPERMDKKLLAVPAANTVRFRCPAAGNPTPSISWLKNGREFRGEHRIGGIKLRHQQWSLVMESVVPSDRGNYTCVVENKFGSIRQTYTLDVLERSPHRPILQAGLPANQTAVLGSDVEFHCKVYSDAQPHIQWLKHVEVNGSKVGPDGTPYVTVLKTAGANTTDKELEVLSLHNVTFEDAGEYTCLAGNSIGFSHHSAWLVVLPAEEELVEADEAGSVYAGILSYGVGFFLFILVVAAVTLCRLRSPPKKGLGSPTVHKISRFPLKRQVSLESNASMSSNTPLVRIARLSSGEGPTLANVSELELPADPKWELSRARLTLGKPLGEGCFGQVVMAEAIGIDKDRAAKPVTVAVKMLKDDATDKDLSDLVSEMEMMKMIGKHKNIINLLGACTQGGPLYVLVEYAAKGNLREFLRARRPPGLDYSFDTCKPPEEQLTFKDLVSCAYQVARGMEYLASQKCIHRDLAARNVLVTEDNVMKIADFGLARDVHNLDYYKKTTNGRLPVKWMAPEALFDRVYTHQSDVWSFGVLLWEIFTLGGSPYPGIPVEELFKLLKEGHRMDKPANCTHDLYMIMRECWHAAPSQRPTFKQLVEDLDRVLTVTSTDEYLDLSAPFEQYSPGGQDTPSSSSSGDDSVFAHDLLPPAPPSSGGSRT
Sequence of Cytoplasmic tyrosine-protein kinase BMX (Homo sapiens) (P51813 whole entry): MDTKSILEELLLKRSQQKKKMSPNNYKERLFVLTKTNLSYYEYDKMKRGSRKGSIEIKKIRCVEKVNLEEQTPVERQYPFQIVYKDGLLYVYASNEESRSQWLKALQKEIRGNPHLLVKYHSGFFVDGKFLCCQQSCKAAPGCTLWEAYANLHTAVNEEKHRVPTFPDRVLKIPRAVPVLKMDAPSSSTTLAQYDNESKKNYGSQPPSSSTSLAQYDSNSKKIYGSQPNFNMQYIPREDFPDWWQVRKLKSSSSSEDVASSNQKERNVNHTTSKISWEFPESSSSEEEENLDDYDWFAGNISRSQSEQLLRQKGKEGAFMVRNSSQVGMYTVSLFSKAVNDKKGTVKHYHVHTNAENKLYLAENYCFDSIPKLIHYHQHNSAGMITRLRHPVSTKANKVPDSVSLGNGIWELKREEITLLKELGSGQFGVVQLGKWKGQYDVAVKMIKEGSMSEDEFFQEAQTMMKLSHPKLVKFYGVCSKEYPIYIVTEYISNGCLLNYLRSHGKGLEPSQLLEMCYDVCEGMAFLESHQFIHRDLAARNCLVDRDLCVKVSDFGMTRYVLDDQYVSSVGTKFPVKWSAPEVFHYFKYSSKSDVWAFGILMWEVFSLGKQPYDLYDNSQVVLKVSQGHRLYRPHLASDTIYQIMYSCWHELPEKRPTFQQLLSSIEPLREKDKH
Sequence of Alpha-2B adrenergic receptor (Homo sapiens) (P18089 whole entry): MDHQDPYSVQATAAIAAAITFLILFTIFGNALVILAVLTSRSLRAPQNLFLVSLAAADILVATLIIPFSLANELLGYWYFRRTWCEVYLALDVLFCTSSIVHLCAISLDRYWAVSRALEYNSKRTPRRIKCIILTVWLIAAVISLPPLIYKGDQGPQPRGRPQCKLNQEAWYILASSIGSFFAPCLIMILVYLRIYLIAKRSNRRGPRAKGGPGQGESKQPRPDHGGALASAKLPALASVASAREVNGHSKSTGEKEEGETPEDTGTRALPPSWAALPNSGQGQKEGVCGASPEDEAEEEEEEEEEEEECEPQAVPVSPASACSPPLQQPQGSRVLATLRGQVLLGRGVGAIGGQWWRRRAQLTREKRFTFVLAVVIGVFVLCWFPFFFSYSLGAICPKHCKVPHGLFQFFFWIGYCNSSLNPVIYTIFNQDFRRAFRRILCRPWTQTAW

C[C@@H]1CN(c2ncc(Cl)c(Nc3ccc4c(c3)n(CCC(C)(C)O)c(=O)n4C)n2)C[C@H](C)C1(F)F
inactive: Tm [1] 44 °C | Tm [2] 42 °C | LogFC [3] 0.239 | Tm [4] 45 °C | LogFC [5] -0.044 | Tm [6] 48 °C | Tm [7] 50 °C | LogFC [8] -0.235 | Tm [9] 42 °C | inhibition [10] 7.28% | inhibition [11] 16% | LogFC [12] 0.153 | inhibition [13] -0.79% | Tm [14] 52 °C | Tm [15] 34 °C
